# Data reported in patent publication US20250325662A1, “METHODS OF TREATING AND PREDICTING NON-RESPONSE TO ANTI-TNF TREATMENT IN SUBJECTS WITH GASTROINTESTINAL TRACT DISEASES” (BT Bidco, Inc., priority 2020, published 2025).
# Counter-ions that a name gives are not always drawn.
# Tested on: IL-6, GM-CSF, IL-15, IL-2, IL-12, IL-13, TNF-α, and INF-γ
smiles,measurement,setting,value
C[C@@H]1CCN(C(=O)CC#N)C[C@@H]1N(C)c1ncnc2[nH]ccc12 [tofacitinib citrate],IL-6 expression in plasma,"PO or IC administration, 1 h and 3 h post-treatment",inhibition of IL-6 expression
same,inhibition of IL-6 expression in colon tissue,all IC treated groups and high dose PO group (45 mg/kg),sustained through 24 h post-dose
same,IL-6 inhibition in colon tissue,"low dose PO group (15 mg/kg), by 12 h post-dose",Recovery from IL-6 inhibition
